Test results from a melting point compilation (Tetko et al.; mined from patent text by program, amines drawn as free bases though some values may be those of a salt).

SMILES | melting point [°C]
Cc1ccc2cccc(OCc3cc(N)ccc3Cl)c2n1 | 176 to 178
COc1ccc(-c2ccc3ccc(OC)cc3c2)cc1 | 154
N#Cc1ccc2c(c1)C(=O)c1cc3c(cc1OC2)OCO3 | 217 to 220
COc1ccc(C2(CNC(=S)NCC(C)C)OCCO2)cc1 | 96
C=CCN(CC=C)c1nc(NC(=O)CCCC(=O)OC)n2oc(=O)nc2n1 | 164 to 165
CCOC(=O)Cn1c(=O)[nH]c2ccc(Cl)cc2c1=O | 214 to 215
Cc1ccc(S(=O)(=O)OCCN(c2ccc(OC(F)(F)F)cc2)S(=O)(=O)c2ccc(C)cc2)cc1 | 88
NC1CCC(CC2CCC(Nc3ncc4ncnc(Nc5ccc(F)c(Cl)c5)c4n3)CC2)CC1 (configuration not stated) | 164 to 166
Cc1cc(Cl)cc2c1OCC(/C=C/C=C/C=C/C(=O)O)=C2 | 208 to 210
O=C1N(Cc2cccnc2)c2ccccc2C12COc1ccc3nonc3c12 (configuration not stated) | 230 to 232
CCOCc1cc2cc(Br)ccc2oc1=Nc1ccc(Cl)cc1 | 144 to 145
COC(=O)c1cc(NC(=O)c2ccccc2Cl)c2cc(Cc3ccc(F)cc3)cnc2c1O | 230 to 232
N#Cc1ccc(O)c(I)c1 | 144 to 146
COCCc1ccc(-c2ccc3c(c2)C=C(C(=O)Nc2ccc(CN(C)C4CCOCC4)cc2)CCS3(=O)=O)cc1 | 216 to 219
CC(=O)SCCC(=O)N1[C@@H](c2ccccc2O)SC[C@H]1C(=O)N(c1ccccc1)[C@@H](C)C(=O)O | 91 to 95
Cc1cc(CCCOc2c(C)cc(-c3noc(C#N)n3)cc2C)on1 | 93 to 94
OCc1ccnc(Br)c1 | 63.3 to 64.4
CCOP(=O)(CC(=O)Nc1cc2c(Nc3ccc(F)c(Br)c3)ncnc2cn1)OCC | 214 to 217
COc1nc(C)nc(NC(=O)NS(=O)(=O)Cc2ccccc2-c2nnc(SC)o2)n1 | 175 to 177
CSc1ccc(/C=C2/C(C)=C(CCCN(O)C(N)=O)c3cc(F)ccc32)cc1 | 145 to 147
COc1ccc(-n2cnc3ccc(-c4nnc(CCc5cccc(C#N)c5)o4)cc32)cc1 | 125 to 127
CC(/C=C/c1c(C)sc(C)c1C)=C(F)\C=C\C(C)=C\C=O | 129 to 131
CCOC(=O)/C(C#N)=C/c1c(OC)cccc1OC | 99 to 101
CC(C)=NOCc1nc2c(N)nc3ccccc3c2n1CC(C)C | 194 to 195
COc1cc(C2CCOC2=O)c([N+](=O)[O-])cc1OC (configuration not stated) | 144 to 147
CC(=O)c1ccc(OCCCN2CCC(c3nsc4cc(F)ccc34)CC2)c(O)c1 | 135 to 137

SMILES | melting point [°C]
COc1cc(S(C)(=O)=O)ccc1-c1nc2cc3c(cc2[nH]1)N(C(C)=O)CC3(C)C | 223 to 225
COc1ccc2c(c1)CCc1cnc(N(C)c3cc(OC)c(OC)c(OC)c3)nc1-2 | 199 to 201
COC(=O)c1ccc2c(c1)Sc1ccc(F)cc1C(=O)C2 | 129 to 131
CS(=O)(=O)c1ccc(C(=O)O)c(Cl)c1OC1COC1 | 180 to 183
CC[C@H](COCCCc1ccccc1)n1cnc2c(N)nc3ccccc3c21 | 118 to 120
NC(=O)c1cc2c(Sc3ccc(Cl)cc3)cncc2s1 | 239 to 241
COC(=O)CCNc1ccccc1CNC(=O)C1Cc2ccccc2N1S(=O)(=O)c1ccc(-c2cccc(C(F)(F)F)c2)cc1 (configuration not stated) | 60
CN1CCN(c2cc(N)c([N+](=O)[O-])cc2F)CC1 | 154 to 155
Cc1cc(Br)cnc1CCCCNC1=NS(=O)(=O)c2cc([N+](=O)[O-])ccc21 | 235 to 242
C=Cc1ccncc1C#N | 56 to 57
CCOC(=O)c1cc(=O)c2cc3c(=O)cc(C(=O)OCC)oc3cc2[nH]1 | 201 to 202
COc1cc(-c2cc(C(F)(F)F)nn2-c2ccc(S(C)(=O)=O)c(F)c2)ccc1-c1cscn1 | 155 to 157
Cc1ccc2c(n1)N(CCCN1CCCC1)c1ccccc1N(C)C2=O | 134 to 136
O=c1cnc2c(NC(CO)CO)nc(SCc3cccc(C(F)(F)F)c3F)nc2[nH]1 | 244 to 245
CC(C)NC(=O)c1nc(Cl)c(Cl)[nH]1 | 150
CCOC(=O)CN(C)CC=CC(=O)Nc1ccc2ncnc(Nc3cccc(Br)c3)c2c1 | 182 to 183
CCOC(=O)CC(=O)c1csc(-c2ccccc2)n1 | 66 to 68
CC(C)(C)OC(=O)N1CC(O)C(N=[N+]=[N-])C1 (configuration not stated) | 34 to 36
N#CN=C(Nc1cccnc1)NC(NC(=O)c1ccc(Cl)cc1)C(Cl)(Cl)Cl (configuration not stated) | 126 to 128
CCOC(=O)c1cc(S)n2c(C)nnc2n1 | 206 to 208
CCCCOCC1OC(n2c(Cl)nc3cc(Cl)c(Cl)cc32)C(O)C1O (configuration not stated) | 70 to 72
Cc1cc(Oc2cc(C(F)(F)F)nn2C)nc(-c2ccsc2)n1 | 122
Cc1cccc2c1C(=O)N(CO)S2(=O)=O | 196 to 198
Clc1cc(Br)c2c(c1)COCO2 | 108 to 110
C#Cc1ccc2ncsc2c1 | 47.5 to 49
CS(=O)(=O)Nc1ccc(C(=O)C2CCN(CCCOc3ccc([N+](=O)[O-])cc3)CC2)cc1 | 162 to 164

SMILES | melting point [°C]
CCOC(=O)c1cc(Cl)n2c(C)nnc2n1 | 108 to 110
CC(=C(c1ccc(N(C)C)cc1)c1ccc(N(C)C)cc1)P(C(C)(C)C)C(C)(C)C | 133 to 135
O=C(Nc1cc2ncc(CN3CCCC3)cc2cc1F)c1ccc(-c2ccc(Cl)cc2)cc1 | 218 to 220
CCOC(=O)OCC(I)=C(I)I | 49 to 50
COC(=O)c1ccc(Cn2ncc3ccc(N)cc32)cc1 | 131 to 132
O=C1c2ccccc2-n2cnc(-c3noc(CCl)n3)c2[C@@H]2CCCN12 | 205 to 206
CCOC(=O)C1(C)CCc2ccccc2O1 (configuration not stated) | 79 to 80
NC(=O)N1C(=O)Cc2cc(NC(=O)c3ccccc3)ccc21 | 223 to 226
O=C1CCCN1c1cccc(C(F)(F)F)c1 | 65 to 66
Cc1ccc(-c2ccc3c(c2)C=C(C(=O)Nc2ccc(CN4CCCCC4)cc2)CC3)cc1 | 187 to 189
O=C1NCC(CCl)C1(c1ccccc1)c1ccccc1 (configuration not stated) | 218 to 219
Cc1cc(Oc2cccc(C(F)(F)F)c2)nn1C(N)=O | 76 to 77
CCN(CC)CCNC(=O)c1cccc2nc3cc(I)ccc3nc12 | 140 to 142
COC(=O)c1ccccc1-c1cc(-c2ccc(OC)cc2)n(C(C)=O)n1 | 119 to 121
COC(=O)c1cn(Cc2ccc(OCc3nc(-c4ccccc4)oc3C)cc2)cc1-c1ccccc1 | 115 to 116
COc1cc(N[C@H]2CC[C@H](NCc3ccccc3)CC2)c(Cl)cc1C(N)=O | 204 to 206
CCC(CC)n1nnc2c(Nc3ccc(C(C)C)cc3Br)nc(C)cc21 | 144 to 145
OCCSc1c(Cl)c(Cl)c(SCCO)c(Cl)c1Cl | 149 to 152
CC1(C)Oc2cc(Br)sc2C(N2CCCC2=O)C1O (configuration not stated) | 162 to 165
CC(C)Oc1c(C(N)=O)oc2ccccc12 | 82 to 83
CC(C)=CCN1Cc2c(Br)ccc3[nH]c(=S)n(c23)C[C@@H]1C | 161
CCOC(=O)c1c[nH]c(Br)c1-c1ccc(Cl)cc1 | 161 to 164
CC(Cc1nc(-c2ccccc2)nc2ccccc12)C(=O)NC(CO)c1ccccc1 (configuration not stated) | 199
Cn1c(SCSC#N)nc2ccccc2c1=O | 118 to 121
COc1ccc(OC)c2[nH]ccc12 | 193 to 195
COC(=O)C(Cc1ccc(OCCn2c(=O)oc3cc(C(O)c4ccccc4)ccc32)cc1)C(=O)OC (configuration not stated) | 84 to 87

SMILES | melting point [°C]
CCCc1nc(C(O)C(C)(C)C)c(C(N)=O)n1Cc1ccc(-c2ccccc2-c2nnn[nH]2)cc1 (configuration not stated) | 174 to 176
CC1Nc2ccc(-c3csc(C#N)c3)cc2C2(CCCC2)O1 (configuration not stated) | 103 to 104
O=C(Cl)c1cccc(C(=O)Cl)c1[N+](=O)[O-] | 129 to 132
COc1cc(C=O)ccn1 | 33 to 35
CCOC(=O)c1nc2sc(CC)c([N+](=O)[O-])c2c(=O)[nH]1 | 200 to 212
COC(=O)COc1ccc2cc(CNC(=O)c3cc(-c4ccc(Cl)cc4)oc3C)ccc2c1 | 168 to 169
CCC1(CC)NS(=O)(=O)c2ccccc21 | 174
CC(C)(C)S(=O)(=O)NCc1cc(-c2ccc(Cl)c(Cl)c2)n(Cc2ccc(Cl)c(Cl)c2)n1 | 127
NC(=O)c1ccccc1N1CCN(Cc2cn3cc(Cl)ccc3n2)CC1 | 178 to 179
Cc1c(N=C2NCCN2)cccc1N(C)C | 116 to 118
CNC(=NC#N)NCCSCc1cccc(NC(N)=NCC(F)(F)F)n1 | 137 to 140
CN(C)Cc1nc(-c2ncn3c2[C@@H]2CCN2C(=O)c2cc(F)ccc2-3)no1 | 150 to 155
CCC1c2cccn2-c2ccc(F)cc2N1S(=O)(=O)c1ccc(O)cc1 (configuration not stated) | 150 to 152
O=C(O)CC(CC(=O)O)NC(=O)OCC1c2ccccc2-c2ccccc21 | 189 to 190
COC(=O)c1ccc(OCCNC(=O)C2Cc3ccccc3N2S(=O)(=O)c2ccc(-c3ccc(F)cc3OC)cc2)cc1F (configuration not stated) | 73 to 80
CC(C)C(=O)Nc1cn(-c2cncc(F)c2)nc1C=O | 140 to 142
CC(C)CNC(=O)C=Cc1ccc(OCc2ccccc2)c([N+](=O)[O-])c1 | 166 to 167
C1=Cc2cc(C=C(c3ccc4c(c3)C=C4)c3ccc4c(c3)C=C4)ccc21 | 87 to 89
O=C(c1nccs1)c1cnn2c(-c3ccncc3)ccnc12 | 323 to 325
CC(C)(C)C(=O)Nc1nc(O)c2cc(CCc3ccc(C(=O)O)cc3)cnc2n1 | > 300
COC(=O)c1c[nH]c(-c2ccc(OC)cc2)n1 | 188 to 190
CCC(COc1cccc(COc2cccc3ccc(=O)[nH]c23)c1)OC(C)=O (configuration not stated) | 81 to 84
CCCCCCCCCCCCCC(=O)Nc1cc(NC(=O)CCCCCCCCCCCCC)cc(C(=O)N(CC(=O)O)CC(=O)O)c1 | 109 to 111
CCOC(=O)c1ccc(CNc2ccncc2[N+](=O)[O-])cc1 | 166 to 168
